Source: patent US11596611B2, “Hepatitis B antiviral agents” (ENANTA PHARMACEUTICALS, INC., priority 2017, dated 2023)

tested on: HBV; assay: HepAD38 antiviral assay: reduction of viral product accumulation (virion DNA by qPCR, HBsAg or HBeAg by ELISA); type: cell-based, hepatitis B virus; settings: Hepatitis B virus, 120 h; HepAD38 cells, five days after compound addition; 50% reduction of viral product vs no drug controls; read-out: HepAD38 EC50
Procedure: Methods: HepAD38 cells are maintained as previously reported (Ladner et al, Antimicrob. Agents Chemother. 1997, […], 1715). Briefly, cells are passaged upon attaining confluency in DMEM/F12 media in the presence of 10% FBS, Penn/Strep, 250 μg/mL G418, and 1 ug/ml tetracycline. Novel compounds are screened by first washing cells three times with PBS to remove tetracycline, and plating in 96 well plates at 35,000 cells/well. Compounds dissolved in DMSO are then diluted 1:200 into wells containing cells. Five days after compound addition, material is harvested for analysis. For an extended 8 days analysis, cells are plated and treated as described above, but media and compound are refreshed on d2 and d5 post initial treatment.
On harvest day, virion DNA is obtained by lysing with Sidestep Lysis and Stabilization Buffer and then quantified via quantitative real time PCR. Commercially available ELISA kits are used to quantitate the viral proteins HBsAg (Alpco) or HbeAg (US Biological) by following the manufacturer's recommended protocol after diluting samples to match the linear range of their respective assays.

Row | SMILES | EC50 [µM]
1 | C[C@]1(O)C2CCC1C[C@@H](S(=O)(=O)c1cc(C(=O)Nc3ccc(F)c(O)c3)ccc1Cl)C2 [Example 134] | > 0.2
2 | CC(C)(C1CCC2(CC1)OCCO2)S(=O)(=O)c1cc(C(=O)Nc2ccc(F)c(F)c2)ccc1Cl [Example 231] | > 0.2
3 | O=C(Nc1cc(F)c(F)c(F)c1)c1ccc(Cl)c(S(=O)(=O)[C@H]2CC3CCC(C2)[C@]3(O)CO[C@H]2C[C@@H](O)[C@@H](O)C2)c1 [Example 34] | < 0.104
4 | O=C(Nc1ccc(F)c(F)c1)c1ccc(Cl)c(S(=O)(=O)[C@H]2CC3CCC(C2)[C@]3(O)C(O)c2ccncc2)c1 (stereo partly shown) [Example 286] | 0.1 to 0.2
5 | CC(C)(O)CNC(=O)C[C@]1(O)CC[C@@H](CS(=O)(=O)c2cc(C(=O)Nc3ccc(F)c(F)c3)ccc2Cl)CC1 [Example 195] | > 0.2
6 | CC(C)([C@H]1CC[C@@](C)(O)CC1)S(=O)(=O)c1cc(C(=O)Nc2ccc(F)c(F)c2)ccc1Cl [Example 237] | > 0.2
7 | C[C@@H](O)COCC1(O)CC(CS(=O)(=O)c2cc(C(=O)Nc3ccc(F)c(F)c3)ccc2Cl)C1 (stereo partly shown) [Example 209] | > 0.2
8 | O=C(Nc1cc(F)c(F)c(F)c1)c1ccc(Cl)c(S(=O)(=O)[C@@H]2CC3CC[C@@H](C2)[C@@]3(O)CNC(=O)[C@@H]2C[C@@H](O)[C@@H](O)C2)c1 [Example 24] | > 0.2
9 | O=C(Nc1cc(F)c(F)c(F)c1)c1ccc(Cl)c(S(=O)(=O)[C@H]2CC3CCC(C2)[C@]3(O)CNC(=O)C2CCOC2)c1 (stereo partly shown) [Example 87] | < 0.104
10 | O=C(Nc1cc(F)c(F)c(F)c1)c1ccc(Cl)c(S(=O)(=O)[C@H]2CC3CCC(C2)[C@]3(O)[C@H](O)[C@@H](O)CO)c1 [Example 42] | < 0.104
11 | O=C(Nc1ccc(F)c(F)c1)c1ccc(Cl)c(S(=O)(=O)[C@H]2CC3CC[C@@H](C2)[C@@]3(O)C(O)Cn2cccn2)c1 (stereo partly shown) [Example 310] | > 0.2
12 | O=C(Nc1cc(F)c(F)c(F)c1)c1ccc(Cl)c(S(=O)(=O)[C@H]2CC3CCC(C2)[C@]3(O)CNC(=O)[C@@H]2CCCO2)c1 (single isomer, unassigned) [Example 14] | < 0.104
13 | COC(=O)CNC(=O)[C@H]1C[C@@H](S(=O)(=O)c2cc(C(=O)Nc3ccc(F)c(F)c3)ccc2Cl)C1 [Example 253b] | > 0.2
14 | C[C@]1(O)C2CCC1C[C@@H](S(=O)(=O)c1cc(C(=O)Nc3ncccn3)ccc1Cl)C2 [Example 217] | > 0.2
15 | C[C@]1(O)C2CCC1C[C@@H](S(=O)(=O)c1cc(C(=O)Nc3ccc(F)c(F)c3)c(-c3ccccn3)cc1Cl)C2 [Example 133] | > 0.2
16 | O=C(Nc1cc(F)c(F)c(F)c1)c1ccc(Cl)c(S(=O)(=O)[C@H]2CC3CCC(C2)[C@]3(O)CC(=O)N2CC3(COC3)C2)c1 [Example 94] | < 0.104
17 | O=C(Nc1ccc(F)c(F)c1)c1ccc(Cl)c(S(=O)(=O)[C@H]2CC3CCC(C2)[C@]3(O)C(O)Cc2cccnc2)c1 (stereo partly shown) [Example 318] | > 0.2
18 | C[C@]1(O)C2CCC1C[C@@H](S(=O)(=O)c1cc(C(=O)Nc3ccnnc3)ccc1Cl)C2 [Example 212] | > 0.2
19 | COc1cc(NC(=O)c2ccc(Cl)c(S(=O)(=O)[C@H]3CC4CCC(C3)[C@@]4(C)O)c2)ccc1F [Example 104] | > 0.2
20 | CC(C)(O)CC(=O)NC[C@]1(O)C2CCC1C[C@@H](S(=O)(=O)c1cc(C(=O)Nc3ccc(F)c(F)c3)ccc1Cl)C2 [Example 170] | < 0.104
21 | O=C(Nc1ccc(F)c(F)c1)c1ccc(Cl)c(S(=O)(=O)CC2CC(O)(C(O)CO)C2)c1 (stereo not shown) [Example 207] | > 0.2
22 | CC(=O)C(=O)[C@@]1(O)C2CC[C@H]1C[C@H](S(=O)(=O)c1cc(C(=O)Nc3ccc(F)c(F)c3)ccc1Cl)C2 [Example 336] | < 0.104
23 | Cc1ccc(NC(=O)c2ccc(Cl)c(S(=O)(=O)[C@H]3CC4CCC(C3)[C@@]4(C)O)c2)cc1F [Example 44] | > 0.2
24 | COC(=O)N[C@@H](Cc1ccccc1)C(=O)N1C2CCC1CC(S(=O)(=O)c1cc(C(=O)Nc3cc(F)c(F)c(F)c3)ccc1Cl)C2 (stereo partly shown) [Example 154] | > 0.2
25 | O=C[C@]1(O)C2CCC1C[C@@H](S(=O)(=O)c1cc(C(=O)Nc3ccc(F)c(F)c3)ccc1Cl)C2 [Example 203] | < 0.104
26 | CC(C)N(C[C@]1(O)C2CCC1C[C@@H](S(=O)(=O)c1cc(C(=O)Nc3ccc(F)c(F)c3)ccc1Cl)C2)C(C)C [Example 342] | < 0.104
27 | O=C(Nc1ccc(F)c(F)c1)c1ccc(Cl)c(S(=O)(=O)C2CC(C(=O)NCCCO)C2)c1 (stereo not shown) [Example 258] | > 0.2

Row | SMILES | EC50 [µM]
28 | O=C1N[C@H](C(=O)NC[C@]2(O)C3CCC2C[C@@H](S(=O)(=O)c2cc(C(=O)Nc4cc(F)c(F)c(F)c4)ccc2Cl)C3)CO1 [Example 85] | > 0.2
29 | C=CCC1(O)CC(S(=O)(=O)c2cc(C(=O)Nc3ccc(F)c(F)c3)ccc2Cl)C1 (stereo not shown) [Example 239] | > 0.2
30 | O=C(Nc1ccc(F)c(F)c1)c1ccc(Cl)c(S(=O)(=O)C2CC(O)(CCO)C2)c1 (stereo not shown) [Example 240] | > 0.2
31 | C[C@@H](O)[C@H](O)[C@]1(O)C2CCC1C[C@@H](S(=O)(=O)c1cc(C(=O)Nc3cc(F)c(F)c(F)c3)ccc1Cl)C2 (single isomer, unassigned) [Example 109] | < 0.104
32 | C[C@]1(O)C2CCC1C[C@@H](S(=O)(=O)c1cc(C(=O)Nc3ccc(F)c(CO)c3)ccc1Cl)C2 [Example 166] | < 0.104
33 | O=C(Nc1ccc(F)c(F)c1)c1ccc(Cl)c(S(=O)(=O)[C@H]2CC3CCC(C2)[C@]3(O)[C@H](O)CO)c1 (single isomer, unassigned) [Example 174] | < 0.104
34 | Cc1cccnc1C(O)[C@@]1(O)C2CC[C@H]1C[C@H](S(=O)(=O)c1cc(C(=O)Nc3ccc(F)c(F)c3)ccc1Cl)C2 (stereo partly shown) [Example 295] | < 0.104
35 | C=CC1(O)CC(S(=O)(=O)c2cc(C(=O)Nc3ccc(F)c(F)c3)ccc2Cl)C1 (stereo not shown) [Example 260] | > 0.2
36 | CC(C)(O)C(O)CNC(=O)[C@@]1(O)C2CC[C@H]1C[C@H](S(=O)(=O)c1cc(C(=O)Nc3cc(F)c(F)c(F)c3)ccc1Cl)C2 (stereo partly shown) [Example 148] | 0.1 to 0.2
37 | C[C@H](O)[C@@H](O)COC[C@]1(O)C2CCC1C[C@@H](S(=O)(=O)c1cc(C(=O)Nc3cc(F)c(F)c(F)c3)ccc1Cl)C2 (single isomer, unassigned) [Example 164] | < 0.104
38 | CC(C)c1cc(NC(=O)c2ccc(Cl)c(S(=O)(=O)[C@H]3CC4CCC(C3)[C@@]4(C)O)c2)ccc1F [Example 43] | > 0.2
39 | O=C(Nc1ccc(F)c(F)c1)c1ccc(Cl)c(S(=O)(=O)[C@H]2CC3CCC(C2)[C@]3(O)C(O)C(O)c2cccnc2)c1 (stereo partly shown) [Example 321] | < 0.104
40 | O=C1CC[C@@H](C(=O)NC[C@]2(O)C3CCC2C[C@@H](S(=O)(=O)c2cc(C(=O)Nc4cc(F)c(F)c(F)c4)ccc2Cl)C3)N1 [Example 127] | > 0.2
41 | CC(C)([C@H]1CC[C@@H](O)CC1)S(=O)(=O)c1cc(C(=O)Nc2ccc(F)c(F)c2)ccc1Cl [Example 235] | > 0.2
42 | CC(O)C(O)CNC(=O)[C@]1(O)C2CCC1C[C@@H](S(=O)(=O)c1cc(C(=O)Nc3cc(F)c(F)c(F)c3)ccc1Cl)C2 (mixture of isomers) [Example 38] | > 0.2
43 | C[C@H](O)C(=O)O[C@@H](C)C(=O)NC[C@]1(O)C2CCC1C[C@@H](S(=O)(=O)c1cc(C(=O)Nc3cc(F)c(F)c(F)c3)ccc1Cl)C2 (single isomer, unassigned) [Example 106] | < 0.104
44 | O=C(Nc1ccc(F)c(F)c1)c1ccc(Cl)c(S(=O)(=O)CC2CCC(F)CC2)c1 (stereo not shown) [Example 226] | > 0.2
45 | COC(=O)NCCC(=O)N1C2CCC1CC(S(=O)(=O)c1cc(C(=O)Nc3cc(F)c(F)c(F)c3)ccc1Cl)C2 (stereo not shown) [Example 147] | < 0.104
46 | O=C(Nc1ccc(F)c(F)c1)c1ccc(Cl)c(S(=O)(=O)[C@H]2CC3CCC(C2)[C@]3(O)CN2CCOC2=O)c1 [Example 306] | < 0.104
47 | COC(=O)N[C@H](C(=O)NC[C@]1(O)C2CCC1C[C@@H](S(=O)(=O)c1cc(C(=O)Nc3cc(F)c(F)c(F)c3)ccc1Cl)C2)C(C)C [Example 50] | < 0.104
48 | O=C(Nc1cc(F)c(F)c(F)c1)c1ccc(Cl)c(S(=O)(=O)[C@H]2CC3CCC(C2)[C@]3(O)COC[C@H](O)C(O)CO)c1 (stereo partly shown) [Example 60] | 0.1 to 0.2
49 | O=C(Nc1ccc(F)c(F)c1)c1ccc(Cl)c(S(=O)(=O)[C@H]2CC3CCC(C2)[C@]3(O)[C@@H](O)c2ccc(F)cn2)c1 (single isomer, unassigned) [Example 291a] | < 0.104
50 | O=C1N[C@@H](C(=O)NC[C@]2(O)C3CCC2C[C@@H](S(=O)(=O)c2cc(C(=O)Nc4cc(F)c(F)c(F)c4)ccc2Cl)C3)CO1 [Example 95] | > 0.2
51 | COC(=O)N1C[C@H](O)C[C@H]1C(=O)NCC(O)[C@]1(O)C2CCC1C[C@@H](S(=O)(=O)c1cc(C(=O)Nc3cc(F)c(F)c(F)c3)ccc1Cl)C2 (stereo partly shown) [Example 107] | > 0.2
52 | C[C@@]1(O)C2CC[C@H]1C[C@H](S(=O)(=O)c1cc(C(=O)Nc3ccc(F)c(C(F)(F)F)c3)ccc1Cl)C2 [Example 31] | 0.1 to 0.2
53 | O=C(Nc1ccc(F)c(F)c1)c1ccc(Cl)c(S(=O)(=O)[C@H]2CC3CCC(C2)[C@]3(O)C(O)c2ccccn2)c1 (stereo partly shown) [Example 284] | < 0.104
54 | C[C@H](O)[C@H](O)[C@]1(O)C2CCC1C[C@@H](S(=O)(=O)c1cc(C(=O)Nc3cc(F)c(F)c(F)c3)ccc1Cl)C2 (single isomer, unassigned) [Example 108] | < 0.104

same assay, conditions: Hepatitis B virus, HePAD38, 120 h, read-out: HepAD38 EC50 (μM)

Row | SMILES | EC50 [µM]
55 | COC(=O)N[C@H](C(=O)N1C2CCC1CC(S(=O)(=O)c1cc(C(=O)Nc3cc(F)c(F)c(F)c3)ccc1Cl)C2)C(C)C (stereo partly shown) [Example 142] | 0.1 to 0.2
